Source: patent US20130259935A1, “PHARMACEUTICAL COMPOSITIONS COMPRISING GLIMEPIRIDE AND POLYETHYLENE GLYCOL CASTOR OIL” (LEK PHARMACEUTICALS D.D., priority 2010, published 2013)
Values after ≈ are worked out from the molar mass of the structure shown.

Test: Solubility of glimepiride, pH-dependent
Format: physicochemical
Settings: for solubility: phosphate buffer, thermodynamic from solid
Procedure: Glimepiride has very low and pH-dependent solubility. […] In media with pH around 7 the solubility of glimepiride is 0.001 mg/mL. At a pH 8, the solubility of glimepiride only slightly increases to 0.03 mg/mL. […] Being insoluble according to the present invention means that the solubility in water is lower than 10 mg/mL. […] Solubility as meant herein is measured using USP apparatus 2 with agitation at 75 RPM. The dissolution medium is phosphate buffer maintained at 37° C. Dissolution as meant herein is measured using HPLC.

## CCC1=C(C)CN(C(=O)NCCc2ccc(S(=O)(=O)NC(=O)N[C@H]3CC[C@H](C)CC3)cc2)C1=O [glimepiride, Glimepiride]
37 °C, pH 8, aqueous buffer
  solubility: 30 µg/mL (≈ 61.1 µM)
Aqueous buffer, acidic medium, 37° C.
  solubility: < 1 µg/mL
water, insoluble means lower than 10 mg/mL
  solubility in water (in words): insoluble in water
